Test results from patent EP3041353B1, “COMPOSITIONS COMPRISING BACTERIOSTATIC AGENTS AND BRILLIANT BLUE G” (priority 2013, dated 2015).

Experiments:
Type in all cases: cell-based
[1] = system: Escherichia coli (E. coli); assay: Bacteriostatic effect of BAK with BBG/BBR: turbidity after 24 h incubation; design: key to Bakterienwachstum nach 24 h Inkubation: +: Bakterienwachstum nach 24 h Inkubation; -: kein Bakterienwachstum nach 24 h Inkubation
Description: (§1) Zur Untersuchung des Einflusses von BBG auf die bakteriostatische Wirkung wurden Bakterien 24 h mit erfindungsgemäßen Zusammensetzungen, Benzalkoniumchlorid (BAK) und Octenidin (Oct) als Bakteriostatikum enthielten, inkubiert. Wenn sich die Inkubationsmischung trübte, wurde das als Bakterienwachstum interpretiert. Zum Vergleich wurde Brillantblau R (BBR) anstelle von BBG eingesetzt. Die Ergebnisse sind in den Tabellen 1-4 wiedergegeben. Tabelle 1: Einfluss von BBG und BBR auf die bakteriostatische Wirkung von BAK gegenüber Escherichia coli (E. coli), + = Bakterienwachstum nach 24 h Inkubation, - = kein Bakterienwachstum nach 24 h Inkubation, R = Brillantblau R (BBR), G = Brillantblau G (BBG).

Bacillus megaterium = assay: Bacteriostatic effect of Octenidin with BBG: turbidity after 24 h incubation; design: key: +: Bakterienwachstum nach 24 h Inkubation; -: kein Bakterienwachstum nach 24 h Inkubation
Description: as §1
(§2) Tabelle 4: Einfluss von BBG auf die bakteriostatische Wirkung von Octenidin (Oct) gegenüber Gram-positiven Bakterien., + = Bakterienwachstum nach 24 h Inkubation, - = kein Bakterienwachstum nach 24 h Inkubation, +/- = geringes Wachstum nach 24 h Inkubation, BBG = Brillantblau G.

Bacillus subtilis = assay: as above; design: key: +: Bakterienwachstum nach 24 h Inkubation; -: kein Bakterienwachstum nach 24 h Inkubation
Description: as §1, §2

[2] = system: Clavibacter michiganensis; assay: as above; design: key: +: Bakterienwachstum nach 24 h Inkubation; -: kein Bakterienwachstum nach 24 h Inkubation
Description: as §1, §2

Paenibacillus sp. = assay: as above; design: key: +: Bakterienwachstum nach 24 h Inkubation; -: kein Bakterienwachstum nach 24 h Inkubation
Description: as §1, §2

## CCOc1ccc(Nc2ccc(C(=C3C=CC(=[N+](CC)Cc4cccc(S(=O)(=O)[O-])c4)C=C3C)c3ccc(N(CC)Cc4cccc(S(=O)(=O)O)c4)cc3C)cc2)cc1 [BBG, Brillantblau G]
[1]; 0,007% G + BAK 0,01%
  Bakterienwachstum nach 24 h Inkubation: -
[1]; 0,007% G + BAK 0,001 %
  Bakterienwachstum nach 24 h Inkubation: +
[1]; 0,007% G + BAK 0,0016%
  Bakterienwachstum nach 24 h Inkubation: +
[1]; 0,007% G + BAK 0,0025%
  Bakterienwachstum nach 24 h Inkubation: +
[1]; 0,007% G + BAK 0,004%
  Bakterienwachstum nach 24 h Inkubation: -
[1]; 0,007% G + BAK 0,006%
  Bakterienwachstum nach 24 h Inkubation: -
[1]; 0,015% G + BAK 0,01%
  Bakterienwachstum nach 24 h Inkubation: -
[1]; 0,015% G + BAK 0,001 %
  Bakterienwachstum nach 24 h Inkubation: +
[1]; 0,015% G + BAK 0,0016%
  Bakterienwachstum nach 24 h Inkubation: +
[1]; 0,015% G + BAK 0,0025%
  Bakterienwachstum nach 24 h Inkubation: +
[1]; 0,015% G + BAK 0,004%
  Bakterienwachstum nach 24 h Inkubation: +
[1]; 0,015% G + BAK 0,006%
  Bakterienwachstum nach 24 h Inkubation: -
[1]; 0,030% G + BAK 0,01%
  Bakterienwachstum nach 24 h Inkubation: +
[1]; 0,030% G + BAK 0,001 %
  Bakterienwachstum nach 24 h Inkubation: +
[1]; 0,030% G + BAK 0,0016%
  Bakterienwachstum nach 24 h Inkubation: +
[1]; 0,030% G + BAK 0,0025%
  Bakterienwachstum nach 24 h Inkubation: +
[1]; 0,030% G + BAK 0,004%
  Bakterienwachstum nach 24 h Inkubation: +
[1]; 0,030% G + BAK 0,006%
  Bakterienwachstum nach 24 h Inkubation: +
[1]; 0,030% G, Kein BAK
  Bakterienwachstum nach 24 h Inkubation: +
[1]; Gram-negative Bakterien (E. coli), concentration dependent
  Einfluss auf die bakteriostatische Wirkung von BAK: einen etwas größeren Einfluss als BBR
[1]; dye alone, no BAK (rechte Spalte, Tabelle 1)
  Einfluss auf das Bakterienwachstum: beeinflussen das Bakterienwachstum nicht
Bacillus megaterium; 0,007% BBG + Octenidin 0,01%
  Bakterienwachstum nach 24 h Inkubation: -
Bacillus megaterium; 0,007% BBG + Octenidin 0,002%
  Bakterienwachstum nach 24 h Inkubation: -
Bacillus megaterium; 0,007% BBG + Octenidin 0,003%
  Bakterienwachstum nach 24 h Inkubation: -
Bacillus megaterium; 0,007% BBG + Octenidin 0,005%
  Bakterienwachstum nach 24 h Inkubation: -
Bacillus megaterium; 0,007% BBG + Octenidin 0,007%
  Bakterienwachstum nach 24 h Inkubation: -
Bacillus megaterium; 0,007% BBG + Octenidin 0,009%
  Bakterienwachstum nach 24 h Inkubation: -
Bacillus megaterium; 0,007% BBG, Octenidin 0%
  Bakterienwachstum nach 24 h Inkubation: +
Bacillus megaterium; 0,015% BBG + Octenidin 0,01%
  Bakterienwachstum nach 24 h Inkubation: -
Bacillus megaterium; 0,015% BBG + Octenidin 0,002%
  Bakterienwachstum nach 24 h Inkubation: +
Bacillus megaterium; 0,015% BBG + Octenidin 0,005%
  Bakterienwachstum nach 24 h Inkubation: -
Bacillus megaterium; 0,015% BBG + Octenidin 0,007%
  Bakterienwachstum nach 24 h Inkubation: -
Bacillus megaterium; 0,015% BBG + Octenidin 0,009%
  Bakterienwachstum nach 24 h Inkubation: -
Bacillus megaterium; 0,015% BBG, Octenidin 0%
  Bakterienwachstum nach 24 h Inkubation: +
Bacillus megaterium; 0,030% BBG + Octenidin 0,01%
  Bakterienwachstum nach 24 h Inkubation: -
Bacillus megaterium; 0,030% BBG + Octenidin 0,002%
  Bakterienwachstum nach 24 h Inkubation: +
Bacillus megaterium; 0,030% BBG + Octenidin 0,003%
  Bakterienwachstum nach 24 h Inkubation: +
Bacillus megaterium; 0,030% BBG + Octenidin 0,009%
  Bakterienwachstum nach 24 h Inkubation: -
Bacillus megaterium; 0,030% BBG, Octenidin 0%
  Bakterienwachstum nach 24 h Inkubation: +
Bacillus subtilis; 0,007% BBG + Octenidin 0,01%
  Bakterienwachstum nach 24 h Inkubation: -
Bacillus subtilis; 0,007% BBG + Octenidin 0,002%
  Bakterienwachstum nach 24 h Inkubation: +
Bacillus subtilis; 0,007% BBG + Octenidin 0,003%
  Bakterienwachstum nach 24 h Inkubation: -
Bacillus subtilis; 0,007% BBG + Octenidin 0,005%
  Bakterienwachstum nach 24 h Inkubation: -
Bacillus subtilis; 0,007% BBG + Octenidin 0,007%
  Bakterienwachstum nach 24 h Inkubation: -
Bacillus subtilis; 0,007% BBG + Octenidin 0,009%
  Bakterienwachstum nach 24 h Inkubation: -
Bacillus subtilis; 0,007% BBG, Octenidin 0%
  Bakterienwachstum nach 24 h Inkubation: +
Bacillus subtilis; 0,015% BBG + Octenidin 0,01%
  Bakterienwachstum nach 24 h Inkubation: -
Bacillus subtilis; 0,015% BBG + Octenidin 0,002%
  Bakterienwachstum nach 24 h Inkubation: +
Bacillus subtilis; 0,015% BBG + Octenidin 0,003%
  Bakterienwachstum nach 24 h Inkubation: +
Bacillus subtilis; 0,015% BBG + Octenidin 0,005%
  Bakterienwachstum nach 24 h Inkubation: -
Bacillus subtilis; 0,015% BBG + Octenidin 0,007%
  Bakterienwachstum nach 24 h Inkubation: -
Bacillus subtilis; 0,015% BBG + Octenidin 0,009%
  Bakterienwachstum nach 24 h Inkubation: -
Bacillus subtilis; 0,015% BBG, Octenidin 0%
  Bakterienwachstum nach 24 h Inkubation: +
Bacillus subtilis; 0,030% BBG + Octenidin 0,01%
  Bakterienwachstum nach 24 h Inkubation: -
Bacillus subtilis; 0,030% BBG + Octenidin 0,002%
  Bakterienwachstum nach 24 h Inkubation: +
Bacillus subtilis; 0,030% BBG + Octenidin 0,003%
  Bakterienwachstum nach 24 h Inkubation: +
Bacillus subtilis; 0,030% BBG + Octenidin 0,005%
  Bakterienwachstum nach 24 h Inkubation: +
Bacillus subtilis; 0,030% BBG + Octenidin 0,007%
  Bakterienwachstum nach 24 h Inkubation: +
Bacillus subtilis; 0,030% BBG + Octenidin 0,009%
  Bakterienwachstum nach 24 h Inkubation: -
Bacillus subtilis; 0,030% BBG, Octenidin 0%
  Bakterienwachstum nach 24 h Inkubation: +
[2]; 0,007% BBG + Octenidin 0,01%
  Bakterienwachstum nach 24 h Inkubation: -
[2]; 0,007% BBG + Octenidin 0,002%
  Bakterienwachstum nach 24 h Inkubation: +
[2]; 0,007% BBG + Octenidin 0,003%
  Bakterienwachstum nach 24 h Inkubation: -
[2]; 0,007% BBG + Octenidin 0,005%
  Bakterienwachstum nach 24 h Inkubation: -
[2]; 0,007% BBG + Octenidin 0,007%
  Bakterienwachstum nach 24 h Inkubation: -
[2]; 0,007% BBG + Octenidin 0,009%
  Bakterienwachstum nach 24 h Inkubation: -
[2]; 0,007% BBG, Octenidin 0%
  Bakterienwachstum nach 24 h Inkubation: +
[2]; 0,015% BBG + Octenidin 0,01%
  Bakterienwachstum nach 24 h Inkubation: -
[2]; 0,015% BBG + Octenidin 0,002%
  Bakterienwachstum nach 24 h Inkubation: +
[2]; 0,015% BBG + Octenidin 0,003%
  Bakterienwachstum nach 24 h Inkubation: +
[2]; 0,015% BBG + Octenidin 0,005%
  Bakterienwachstum nach 24 h Inkubation: -
[2]; 0,015% BBG + Octenidin 0,007%
  Bakterienwachstum nach 24 h Inkubation: -
[2]; 0,015% BBG + Octenidin 0,009%
  Bakterienwachstum nach 24 h Inkubation: -
[2]; 0,015% BBG, Octenidin 0%
  Bakterienwachstum nach 24 h Inkubation: +
[2]; 0,030% BBG + Octenidin 0,01%
  Bakterienwachstum nach 24 h Inkubation: -
[2]; 0,030% BBG + Octenidin 0,002%
  Bakterienwachstum nach 24 h Inkubation: +
[2]; 0,030% BBG + Octenidin 0,003%
  Bakterienwachstum nach 24 h Inkubation: +
[2]; 0,030% BBG + Octenidin 0,005%
  Bakterienwachstum nach 24 h Inkubation: +
[2]; 0,030% BBG + Octenidin 0,007%
  Bakterienwachstum nach 24 h Inkubation: +
[2]; 0,030% BBG + Octenidin 0,009%
  Bakterienwachstum nach 24 h Inkubation: -
[2]; 0,030% BBG, Octenidin 0%
  Bakterienwachstum nach 24 h Inkubation: +
Paenibacillus sp.; 0,007% BBG + Octenidin 0,01%
  Bakterienwachstum nach 24 h Inkubation: -
Paenibacillus sp.; 0,007% BBG + Octenidin 0,002%
  Bakterienwachstum nach 24 h Inkubation: -
Paenibacillus sp.; 0,007% BBG + Octenidin 0,003%
  Bakterienwachstum nach 24 h Inkubation: -
Paenibacillus sp.; 0,007% BBG + Octenidin 0,005%
  Bakterienwachstum nach 24 h Inkubation: -
Paenibacillus sp.; 0,007% BBG + Octenidin 0,007%
  Bakterienwachstum nach 24 h Inkubation: -
Paenibacillus sp.; 0,007% BBG + Octenidin 0,009%
  Bakterienwachstum nach 24 h Inkubation: -
Paenibacillus sp.; 0,007% BBG, Octenidin 0%
  Bakterienwachstum nach 24 h Inkubation: +
Paenibacillus sp.; 0,015% BBG + Octenidin 0,01%
  Bakterienwachstum nach 24 h Inkubation: -
Paenibacillus sp.; 0,015% BBG + Octenidin 0,002%
  Bakterienwachstum nach 24 h Inkubation: +
Paenibacillus sp.; 0,015% BBG + Octenidin 0,003%
  Bakterienwachstum nach 24 h Inkubation: +
Paenibacillus sp.; 0,015% BBG + Octenidin 0,005%
  Bakterienwachstum nach 24 h Inkubation: -
Paenibacillus sp.; 0,015% BBG + Octenidin 0,007%
  Bakterienwachstum nach 24 h Inkubation: -
Paenibacillus sp.; 0,015% BBG + Octenidin 0,009%
  Bakterienwachstum nach 24 h Inkubation: -
Paenibacillus sp.; 0,015% BBG, Octenidin 0%
  Bakterienwachstum nach 24 h Inkubation: +
Paenibacillus sp.; 0,030% BBG + Octenidin 0,01%
  Bakterienwachstum nach 24 h Inkubation: -
Paenibacillus sp.; 0,030% BBG + Octenidin 0,002%
  Bakterienwachstum nach 24 h Inkubation: +
Paenibacillus sp.; 0,030% BBG + Octenidin 0,003%
  Bakterienwachstum nach 24 h Inkubation: +
Paenibacillus sp.; 0,030% BBG + Octenidin 0,005%
  Bakterienwachstum nach 24 h Inkubation: +
Paenibacillus sp.; 0,030% BBG + Octenidin 0,007%
  Bakterienwachstum nach 24 h Inkubation: +
Paenibacillus sp.; 0,030% BBG + Octenidin 0,009%
  Bakterienwachstum nach 24 h Inkubation: +
Paenibacillus sp.; 0,030% BBG, Octenidin 0%
  Bakterienwachstum nach 24 h Inkubation: +
